Target: T1, Pfu-FtsY (Pyrococcus furiosus, UniProt Q8U051)
T1 construct: full-length; N-terminal hexahistidine tag (pET28b, thrombin-cleavable) removed; expressed in E. coli BL21(DE3)-rosetta2; calculated mass 35,810 Da; monomer
T1 sequence (Q8U051 1-322): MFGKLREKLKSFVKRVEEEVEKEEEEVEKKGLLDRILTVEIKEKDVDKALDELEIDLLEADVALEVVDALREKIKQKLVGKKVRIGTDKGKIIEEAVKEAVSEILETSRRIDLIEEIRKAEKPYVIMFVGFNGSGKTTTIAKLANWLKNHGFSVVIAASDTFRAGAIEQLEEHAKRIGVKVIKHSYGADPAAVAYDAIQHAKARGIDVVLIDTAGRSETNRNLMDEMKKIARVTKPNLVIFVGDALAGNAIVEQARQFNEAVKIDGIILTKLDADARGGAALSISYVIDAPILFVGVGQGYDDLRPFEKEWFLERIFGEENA
Assay: X-ray crystal structure, […] Å
Assay type: binding
Conditions: Mg2+; co-crystallised with 10 mM GTP (hydrolysed to GDP), pH 8.0; catalytic site at full occupancy; additional external GDP at crystal contact near insertion box domain (second site, 69% occupancy)

For `Nc1nc2c(ncn2[C@@H]2O[C@H](COP(=O)(O)OP(=O)(O)O)[C@@H](O)[C@H]2O)c(=O)[nH]1` [GDP], the “X-ray crystal structure, 2.0 Å” value was “the crystal structure we obtained showed the presence of GDP•magnesium bound in the catalytic site”.
